Test system: pulp contaminated by the microbes (bacteria)
Experiment: Starch degradation in microbe-inoculated recycled-fiber (AOCC) pulp treated with biocides, 5 days (Example 4)
Assay type: cell-based
Settings: total chlorine 20 ppm, added once a day, combinations 10 ppm + 10 ppm
Procedure: 150 g standard American Old Corrugated Containers (sometimes called as AOCC) were weighted. The total starch content of the recycled American Old Corrugated Containers was detected according to the same starch measuring method of example 2, and the result was 9.1%.
In the pulping and papermaking process, the above waste paper was cut into pieces and immersed into 15 kilograms water overnight. The obtained sample was disintegrated by Valley Beater for 30 minutes and pulped for 20 minutes, and the pulp concentration thereof is about 1%.
The above obtained pulp was inoculated by the pulp which was contaminated by bacteria in the ratio of one to thousand, followed by cultivating for 3 hours at 37° C. The simulation pulp contaminated by the microbes was obtained to use for the following experiment. The pH, oxidation-reduction potential (ORP), concentration of adenosine triphosphate (ATP) and total number of aerobic bacteria colonies of the pulp which was contaminated initially by the microbes were detected. […]
The above substances were added into the pulps once a day and the concentrations of the total chlorine were maintained at 20 ppm by controlling the addition doses. The whole experiment was conducted for 5 days and the total starches contents were monitored.

OCl [sodium hypochlorite]
starch degradation rate: 5%

Source: US10422079B2, “Method for preserving recycled fiber by using biocides in paper manufacturing and method for manufacturing paper using recycled fibers” (ECOLAB USA INC., priority 2014, dated 2019)
